From ChEMBL document CHEMBL1201862, “PubChem BioAssay data set” (2004) come the findings set out here.

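Cultured in 96-well plates, cells were exposed to test compound for 48 hours across five concentrations. Here, GI50 denotes the concentration required for 50% inhibition of growth.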 Calls of active or inactive are those of the source. Cut-off read from the data, not from the text of the source: active = GI50 up to about 1.1 µM and inactive = higher. Some results are limits rather than exact numbers.

Among the test systems are HCT-15; SNB-19; NCI-H23; DU-145; SN12C; M14; NCI-H522; HCC 2998; NCI-H226; UO-31; T47D; PC-3; TK-10; HOP-62; MDA-MB-435; SF-539; RXF 393; HOP-92; HL-60.
Holding throughout (assay): DTP human tumour cell line panel, 48 h

As to `CCOC(=O)c1c(C)n(Cc2ccc(Cl)cc2Cl)c2c1cc(O)c1[nH]c3c(c12)CCCC3`, the GI50 in the assay with HCT-15 was 41.7 µM; in the assay with SNB-19 it was 23.6 µM (inactive); in the assay on NCI-H23 it was 27.5 µM (inactive); in the assay with DU-145, 36.4 µM (inactive); in the assay with SN12C it was 22.9 µM (inactive); in the assay on M14 it was 26.7 µM (inactive). Besides, the GI50 was 16.1 µM (inactive) in the assay on NCI-H522; 27.3 µM (inactive) in the assay on HCC 2998; 23.6 µM (inactive) in the assay on NCI-H226; 20.7 µM (inactive) in the assay on UO-31; 14.7 µM (inactive) in the assay with T47D; 19.9 µM (inactive) in the assay with PC-3. Further, the GI50 was 24.5 µM (inactive) in the assay with TK-10; 27.5 µM (inactive) in the assay on HOP-62; 20.3 µM (inactive) in the assay on MDA-MB-435; 24.1 µM (inactive) in the assay with SF-539; 18.5 µM (inactive) in the assay with RXF 393; 20.2 µM (inactive) in the assay on HOP-92. Also, the GI50 with HL-60 is < 0.01 µM (active).
As for `COc1c(C)c2nc3ccccc3nc2c2c(O)ccnc12`, the GI50 in the assay with HCT-15 is greater than 100 µM; in the assay with SNB-19 it was 36.6 µM (inactive); in the assay with NCI-H23 it was 55.6 µM (inactive); in the assay with DU-145 it was 34 µM (inactive); with SN12C it was > 100 µM (inactive); in the assay on M14, > 100 µM (inactive). Further, the GI50 in the assay on NCI-H522 was 71.3 µM (inactive); in the assay on HCC 2998 it was > 100 µM (inactive); with NCI-H226, > 100 µM (inactive); with UO-31, > 100 µM (inactive); in the assay on T47D, 6.64 µM (inactive); in the assay with PC-3, > 100 µM (inactive). Besides, the GI50 is 64.4 µM (inactive) with TK-10; 23.5 µM (inactive) with HOP-62; > 100 µM (inactive) in the assay with MDA-MB-435; 54.2 µM (inactive) in the assay with SF-539; 19.3 µM (inactive) in the assay on RXF 393; 36.4 µM (inactive) in the assay with HOP-92. In the assay with HL-60, the GI50 is > 100 µM (inactive).
With `COc1ccc(C(CC(=O)c2ccc3c(c2)OCO3)c2c(O)oc3ccccc3c2=O)cc1OC` (centres undefined), the GI50 in the assay on HCT-15 was greater than 100 µM; in the assay with SNB-19, > 100 µM (inactive); with NCI-H23, 78 µM (inactive); in the assay on DU-145 it was > 100 µM (inactive); in the assay on SN12C, > 100 µM (inactive); in the assay with M14 it was 1 µM (active). The GI50 is > 100 µM (inactive) in the assay on NCI-H522; > 100 µM (inactive) with HCC 2998; > 100 µM (inactive) in the assay on NCI-H226; 73.3 µM (inactive) in the assay with UO-31; > 100 µM (inactive) in the assay on T47D; 88.5 µM (inactive) in the assay with PC-3. In addition, the GI50 was 67.8 µM (inactive) in the assay on TK-10; > 100 µM (inactive) in the assay with HOP-62; > 100 µM (inactive) with MDA-MB-435; > 100 µM (inactive) with SF-539; > 100 µM (inactive) in the assay with RXF 393; 38.5 µM (inactive) with HOP-92. The GI50 in the assay with HL-60 is > 100 µM (inactive).
With `CN(C)c1nc(N)nc(CS)n1`, the concentration for 50% growth inhibition (GI50) with HCT-15 was 56.4 µM; in the assay with SNB-19, > 100 µM (inactive); in the assay with NCI-H23 it was > 100 µM (inactive); in the assay on DU-145 it was > 100 µM (inactive); in the assay with SN12C, > 100 µM (inactive); with M14, > 100 µM (inactive). For the same compound, the GI50 in the assay on NCI-H522 was > 100 µM (inactive); in the assay with HCC 2998 it was > 100 µM (inactive); in the assay with NCI-H226 it was > 100 µM (inactive); with UO-31, > 100 µM (inactive); in the assay on T47D it was > 100 µM (inactive); in the assay with PC-3, 54.3 µM (inactive). The GI50 in the assay with TK-10 is > 100 µM (inactive); in the assay with HOP-62, 56.1 µM (inactive); in the assay on MDA-MB-435, > 100 µM (inactive); with SF-539, > 100 µM (inactive); in the assay on RXF 393 it was > 100 µM (inactive); in the assay on HOP-92, > 100 µM (inactive). Moreover, the GI50 in the assay with HL-60 is 23.3 µM (inactive).
For the compound `CS(C)(=O)=N/C=C\C(=O)C(Cl)(Cl)Cl`, the GI50 in the assay on HCT-15 is greater than 100 µM; with SNB-19, > 100 µM (inactive); in the assay with NCI-H23 it was > 100 µM (inactive); in the assay on DU-145, > 100 µM (inactive); in the assay on SN12C, > 100 µM (inactive); in the assay on M14, > 100 µM (inactive). In addition, the GI50 with NCI-H522 was 36.1 µM (inactive); in the assay with HCC 2998, > 100 µM (inactive); with NCI-H226, > 100 µM (inactive); with UO-31 it was > 100 µM (inactive); in the assay with T47D it was > 100 µM (inactive); in the assay with PC-3, 54 µM (inactive). Also, the GI50 was > 100 µM (inactive) with TK-10; 99.1 µM (inactive) in the assay on HOP-62; > 100 µM (inactive) in the assay with MDA-MB-435; > 100 µM (inactive) with SF-539; > 100 µM (inactive) in the assay with RXF 393; > 100 µM (inactive) in the assay with HOP-92. In addition, in the assay on HL-60, the GI50 is > 100 µM (inactive).
For `CC(=O)Oc1cccc2c(/C=N/NC(N)=S)ncc(C)c12`, the GI50 was 2.88 µM in the assay on HCT-15; 1.2 µM (inactive) with SNB-19; 0.746 µM (active) in the assay with NCI-H23; 0.347 µM (active) in the assay on DU-145; 0.863 µM (active) with SN12C; 0.753 µM (active) with M14. Moreover, the GI50 is 0.705 µM (active) with NCI-H522; 0.818 µM (active) in the assay with HCC 2998; 2.96 µM (inactive) in the assay with NCI-H226; 1.05 µM (active) in the assay with UO-31; 1.47 µM (inactive) in the assay on T47D; 1.9 µM (inactive) with PC-3. The GI50 in the assay on TK-10 is 7.64 µM (inactive); in the assay on HOP-62 it was 1.07 µM (active); with MDA-MB-435, 4.29 µM (inactive); in the assay with SF-539, 0.207 µM (active); in the assay on RXF 393, 4.15 µM (inactive); with HOP-92, 3.27 µM (inactive). The GI50 in the assay with HL-60 was 0.931 µM (active).
With `COc1cc(OC)c2c(c1)OC(c1ccccc1)CC2=O` (centres undefined) [DIMETHYLPINOCEMBRIN], the GI50 in the assay with HCT-15 was greater than 10 µM; in the assay with SNB-19, > 10 µM (inactive); in the assay with NCI-H23, > 10 µM (inactive); in the assay with DU-145 it was > 10 µM (inactive); in the assay with SN12C, > 10 µM (inactive); in the assay with M14, > 10 µM (inactive). In addition, the GI50 in the assay on NCI-H522, in the assay with HCC 2998, in the assay on NCI-H226, in the assay on UO-31, in the assay with T47D and in the assay on PC-3 was > 10 µM (inactive) in each case. In addition, the GI50 in the assay with TK-10, in the assay on HOP-62, in the assay on MDA-MB-435, in the assay with SF-539, in the assay with RXF 393 and with HOP-92 was > 10 µM (inactive) throughout. For the same compound, the GI50 with HL-60 was > 10 µM (inactive).
Take `O=C(/C=c1\oc(=O)/c(=C/C(=O)c2ccc(Cl)cc2)oc1=O)c1ccc(Cl)cc1`: the GI50 in the assay with HCT-15 was 98.2 µM; in the assay on SNB-19 it was > 100 µM (inactive); in the assay with NCI-H23, > 100 µM (inactive); in the assay on DU-145, > 100 µM (inactive); with SN12C it was > 100 µM (inactive); with M14 it was > 100 µM (inactive). Besides, the GI50 with NCI-H522 was 19.7 µM (inactive); with HCC 2998, > 100 µM (inactive); with NCI-H226, > 100 µM (inactive); in the assay with UO-31, > 100 µM (inactive); in the assay with T47D, 53.7 µM (inactive); with PC-3, > 100 µM (inactive). Besides, the GI50 was > 100 µM (inactive) in the assay on TK-10; > 100 µM (inactive) in the assay on HOP-62; > 100 µM (inactive) in the assay on MDA-MB-435; > 100 µM (inactive) in the assay with SF-539; 60.7 µM (inactive) in the assay on RXF 393; 43.1 µM (inactive) in the assay on HOP-92. In addition, the GI50 with HL-60 was > 100 µM (inactive).
Consider `c1ccc(CCN(Cc2nc3ccccc3[nH]2)Cc2nc3ccccc3[nH]2)cc1`, for which the GI50 in the assay on HCT-15 is 7.45 µM; in the assay with SNB-19 it was 16.2 µM (inactive); in the assay with NCI-H23, 16 µM (inactive); in the assay with DU-145 it was 14.4 µM (inactive); with SN12C, 14.6 µM (inactive); in the assay on M14 it was 12.9 µM (inactive). The GI50 was 17 µM (inactive) in the assay on NCI-H522; 16.9 µM (inactive) in the assay with HCC 2998; 27.6 µM (inactive) in the assay on NCI-H226; 10.9 µM (inactive) in the assay with UO-31; 1.79 µM (inactive) with T47D; 11.5 µM (inactive) with PC-3. Further, the GI50 with TK-10 is 16.3 µM (inactive); in the assay with HOP-62 it was 11.3 µM (inactive); in the assay on MDA-MB-435 it was 12.4 µM (inactive); with SF-539, 20.7 µM (inactive); with RXF 393 it was 13.3 µM (inactive); with HOP-92, 12.5 µM (inactive). Besides, the GI50 in the assay with HL-60 is 2.41 µM (inactive).
`CCOC(=O)/C=C(/C(=O)OCC)n1ccc(=O)[nH]c1=O`: the GI50 in the assay on HCT-15 is 3.08 µM; in the assay with SNB-19, 15.4 µM (inactive); with NCI-H23, 10.4 µM (inactive); in the assay with DU-145, 15.5 µM (inactive); with SN12C, 7.78 µM (inactive); in the assay on M14, 3.83 µM (inactive). The GI50 in the assay on NCI-H522 was 0.726 µM (active); with HCC 2998 it was 16.5 µM (inactive); with NCI-H226, 6 µM (inactive); in the assay with UO-31, 14 µM (inactive); in the assay with T47D, 3.4 µM (inactive); in the assay on PC-3, 13.8 µM (inactive). For the same compound, the GI50 with TK-10 was 3.73 µM (inactive); in the assay with HOP-62, 19.6 µM (inactive); in the assay with MDA-MB-435 it was 10.8 µM (inactive); in the assay on SF-539 it was 18.9 µM (inactive); in the assay with RXF 393, 4.21 µM (inactive); in the assay with HOP-92, 2.07 µM (inactive). In addition, the GI50 with HL-60 is 1.78 µM (inactive).
Take `O=C1C=C(Cl)C(=O)C(c2ccc(Cl)cc2)=C1`: the GI50 with HCT-15 is 18.8 µM; in the assay with SNB-19 it was 89.3 µM (inactive); with NCI-H23 it was 23.2 µM (inactive); with DU-145, 22 µM (inactive); in the assay with SN12C, 22.7 µM (inactive); with M14 it was 17 µM (inactive). The GI50 is 5.05 µM (inactive) in the assay on NCI-H522; 18.1 µM (inactive) with HCC 2998; 20.2 µM (inactive) in the assay with NCI-H226; 14.8 µM (inactive) with UO-31; 13.7 µM (inactive) in the assay with T47D; 15.3 µM (inactive) in the assay with PC-3. Also, the GI50 in the assay with TK-10 was 21.2 µM (inactive); in the assay with HOP-62, 21.1 µM (inactive); in the assay with MDA-MB-435, 17.9 µM (inactive); in the assay on SF-539, 16.9 µM (inactive); with RXF 393 it was 18.4 µM (inactive); with HOP-92, 19.3 µM (inactive). In addition, the GI50 in the assay on HL-60 is 18.8 µM (inactive).
